This is an account of results in patent US20130171178A1, “Immunogenic Peptides of Xage-1” (THE GOVERNMENT OF THE UNITED STATES AS REPRESENTED BY THE …, priority 2003, published 2013).

The target of test [1] is T1, HLA-A2 (Homo sapiens, UniProt P04439, D140Y/D185E/D98H/E176V/E277Q/G131W/G231S/I119V/I121R/I166T/I218V/L300P/L318F/N151K/N90K/P208A/P217A/Q86G/Q94H/R138H/R169H/T345S).
T1 construct: host or cells: T2 cells (human T-B lymphoblast hybrid, TAP1/TAP2 deficient)
Kind of test: T2 binding assay (HLA-A2 expression on T2 cells by flow cytometry). Background: A flow cytometer gives signals particle by particle.

The subject of test [2] is C1R.AAD cells pulsed or unpulsed with peptide. Kind of test: CTL 51Cr-release assay, spleen cells of peptide-immunized HLA-A2 transgenic mice against peptide-pulsed or unpulsed targets. The test is classed as in vivo. The following applies: spleen cells from immunized HLA-A2-transgenic mice. From the text:
(§1) FIG. 3. CTLs induced with peptide of the invention can lyse human cancer cell expressing XAGE-1. Spleen cells derived from HLA-A2 transgenic mice immunized with a peptide of the invention (SEQ ID NO:6), as the effector cells, were stimulated in vitro for two weeks and used for a CTL assay. C1R.AAD cells pulsed or unpulsed with a peptide of SEQ ID NO:6 and a human osteosarcoma cell line expressing XAGE-1 (SB, described in Liu et al, Can Research 60:4752-4755 (2000)) were used as target cells. “E:T Ratio” stands for “Effector:Target ratio,” as indicated on the axis.
(§2) Xage-1 14 peptide (50 nmol) was emulsified in incomplete Freund's adjuvant with 50 nmol of a helper epitope derived from HCV core128-140, 5 μg of IL-12, and 5 μg of GM-CSF. Transgenic A2 Kb mice were immunized s.c. with the emulsified peptide and given a booster shot at 2 weeks. […] A week after the second stimulation, cells were harvested and measured for cytotoxic activity. The cytotoxic activity was measured by 4-hr ^51Cr-release assay. The percentage of specific ^51Cr release was determined as follows: (experimental release−spontaneous release)/(maximum release−spontaneous release)×100. Maximum release was determined from supernatants of cells that were lysed by addition of 5% Triton X-100. Spontaneous release was determined from target cells incubated without added effector cells. […]

The subject of test [3] is HLA-A2 positive human Ewing's sarcoma cell line which expresses XAGE-1 mRNA. Nature of the test: CTL lysis of human XAGE-1-expressing cancer cells by CTLs of immunized HLA-A2 transgenic mice. The test is classed as in vivo.
Description: as §1, §2

Setting [4] is: T2 binding assay, enhanced xage-1 14 peptides, read-out: Binding Affinity to HLA-A2 (FI50).
[5] abbreviates: T2 cells, overnight incubation with peptide and β2-microglobulin, read-out: binding affinity to HLA-A2 (F.I.50).

Read-outs that look alike come from different tables or passages of the source. Where a SMILES comes first, the peptide text is derived from it.

`CC(C)C[C@H](NC(=O)[C@@H](N)Cc1ccc(O)cc1)C(=O)N[C@@H](Cc1ccccc1)C(=O)N1CCC[C@H]1C(=O)N[C@@H](CO)C(=O)N[C@@H](C)C(=O)N1CCC[C@H]1C(=O)N[C@@H](CO)C(=O)N1CCC[C@H]1C(=O)N[C@H](C(=O)O)C(C)C` [1Y2L xage-1 14, YLFPSAPSPV] (H-YLFPSAPSPV-OH; N-terminus and C-terminus assumed): the EC50 in test [1] (setting [4]) came to 3040 nM.
`CC(C)[C@H](NC(=O)[C@@H]1CCCN1C(=O)[C@H](CO)NC(=O)[C@@H]1CCCN1C(=O)[C@H](C)NC(=O)[C@H](CO)NC(=O)[C@@H]1CCCN1C(=O)[C@H](Cc1ccccc1)NC(=O)[C@@H](NC(=O)[C@@H](N)Cc1ccc(O)cc1)C(C)C)C(=O)O` [1Y xage-1 14, YVFPSAPSPV] (H-YVFPSAPSPV-OH; N-terminus and C-terminus assumed): in test [1] (setting [4]), the EC50 stood at 2360 nM.
On to `CSCC[C@H](NC(=O)[C@H](CC(C)C)NC(=O)CN)C(=O)N1CCC[C@H]1C(=O)N[C@@H](CO)C(=O)N[C@@H](C)C(=O)N1CCC[C@H]1C(=O)N[C@@H](CO)C(=O)N1CCC[C@H]1C(=O)N[C@H](C(=O)O)C(C)C` [2L3M xage-1 14, GLMPSAPSPV] (H-GLMPSAPSPV-OH; N-terminus and C-terminus assumed), for which the “binding to HLA-A2 (in words)” value in test [1] (T2 binding assay) is reported as “particularly high binding affinity to HLA-A2”. Besides, the EC50 in test [1] (setting [4]) is 620 nM.
As to `CC(C)C[C@H](NC(=O)CN)C(=O)N[C@@H](Cc1ccccc1)C(=O)N1CCC[C@H]1C(=O)N[C@@H](CO)C(=O)N[C@@H](C)C(=O)N1CCC[C@H]1C(=O)N[C@@H](CO)C(=O)N1CCC[C@H]1C(=O)N[C@H](C(=O)O)C(C)C` [2L xage-1 14, GLFPSAPSPV] (H-GLFPSAPSPV-OH; N-terminus and C-terminus assumed), the EC50 in test [1] (setting [4]) is 1860 nM.
Regarding `CSCC[C@H](NC(=O)[C@@H](NC(=O)CN)C(C)C)C(=O)N1CCC[C@H]1C(=O)N[C@@H](CO)C(=O)N[C@@H](C)C(=O)N1CCC[C@H]1C(=O)N[C@@H](CO)C(=O)N1CCC[C@H]1C(=O)N[C@H](C(=O)O)C(C)C` [3M xage-1 14, GVMPSAPSPV] (H-GVMPSAPSPV-OH; N-terminus and C-terminus assumed), in test [1] (T2 binding assay), the “binding to HLA-A2 (in words)” value is “particularly high binding affinity to HLA-A2”. The EC50 in test [1] (setting [4]) is 280 nM.
On to `CC(C)[C@H](NC(=O)[C@@H]1CCCN1C(=O)[C@H](CO)NC(=O)[C@@H]1CCCN1C(=O)[C@H](C)NC(=O)[C@H](CO)NC(=O)[C@@H]1CCCN1C(=O)[C@H](Cc1ccccc1)NC(=O)[C@@H](NC(=O)CN)C(C)C)C(=O)O` [xage-1 14, GVFPSAPSPV] (H-GVFPSAPSPV-OH; N-terminus and C-terminus assumed), for which the “binding to HLA-A2 (in words)” value in test [1] (T2 binding assay) is “surprisingly stronger binding to HLA-A2 compared to other candidate peptides”. Also, in test [1] (setting [5]), the EC50 lay in the range of 700 to 800 nM. Further, the “specific lytic activity against peptide-pulsed targets” value in test [2] (stimulated twice in vitro, targets pulsed with xage-1 14) is listed as “lysed target cells pulsed with peptide”. Also, in test [2] (unpulsed targets), the “lytic activity against target cells not pulsed with peptide” value is “did not lyse target cells not pulsed with peptide”. The “killing of human XAGE-1-expressing cancer cells by CTLs (FIG. 3)” value in test [3] (CTLs from HLA-A2 transgenic mice immunized with peptide, varying E:T ratio) is recorded as “killed human RAGE-1-expressing cancer cells in a dose dependent manner”. The “lysis of human Ewing's sarcoma cells by CTLs” value in test [3] (CTLs from mice immunized twice with peptide, restimulated in vitro) is listed as “lysed the human Ewing's sarcoma cells”.
As for `CC[C@H](C)[C@H](NC(=O)[C@H](Cc1c[nH]c2ccccc12)NC(=O)[C@@H](NC(=O)[C@H](CCC(=O)O)NC(=O)[C@@H]1CCCN1C(=O)[C@@H](NC(=O)[C@H](CCCNC(=N)N)NC(=O)[C@@H](NC(=O)[C@H](C)N)[C@@H](C)O)C(C)C)C(C)C)C(=O)N[C@@H](CC(C)C)C(=O)O` [xage-1 33, ATRVPEVWIL, reference compound] (H-ATRVPEVWIL-OH), in test [1] (setting [5]), the EC50 is > 50000 nM.
`CSCC[C@H](NC(=O)[C@@H](NC(=O)[C@@H]1CCCN1C(=O)[C@H](CO)NC(=O)[C@H](CCCNC(=N)N)NC(=O)[C@@H]1CCCN1C(=O)[C@H](CO)NC(=O)[C@H](C)NC(=O)[C@@H](NC(=O)[C@@H](N)Cc1c[nH]cn1)[C@@H](C)O)C(C)C)C(=O)O` [xage-1 57, HTASPRSPVM, reference compound] (H-HTASPRSPVM-OH): in test [1] (setting [5]), the EC50 is > 50000 nM.
